{"source": "ChEMBL document CHEMBL1148920", "about": "“Ingenamine G and cyclostellettamines G-I, K, and L from the new Brazilian species of marine sponge Pachychalina sp” (2004)", "assay_type_in_all_cases": "functional", "key": {"[1]": {"system": "HCT-8", "assay": "Cytotoxicity against human HCT8 cells"}, "[2]": {"system": "B16", "assay": "Cytotoxicity against mouse B16 cells"}, "[3]": {"system": "MCF7", "assay": "Cytotoxicity against human MCF7 cells"}, "[4]": {"system": "Staphylococcus aureus", "assay": "Antibacterial activity against Staphylococcus aureus ATCC 25923"}, "[5]": {"system": "Escherichia coli", "assay": "Antibacterial activity against Escherichia coli ATCC 25922"}, "[6]": {"system": "Mycobacterium tuberculosis", "assay": "Antimycobacterial activity against Mycobacterium tuberculosis H37Rv"}}}
{"smiles": "OC1/C=C\\C=C/CCN2CC3C=C4CCCCCCCCCC/C=C\\CCN5CCC3C(C1)(C5)C42", "note": "(stereo unspecified) [INGENAMINE G]", "values": [{"measurement": "Activity", "setting": "[1]", "result": 8.6, "unit": "µg/mL"}, {"measurement": "Activity", "setting": "[2]", "result": 9.8, "unit": "µg/mL"}, {"measurement": "Activity", "setting": "[3]", "result": 11.3, "unit": "µg/mL"}, {"measurement": "Activity", "setting": "[4]", "result": 105, "unit": "µg/mL"}, {"measurement": "Activity", "setting": "[5]", "result": 75, "unit": "µg/mL"}, {"measurement": "Activity", "setting": "[6]", "result": 8, "unit": "µg/mL"}]}
